In patent US6737383B1, “Herbicidal oxadiazolidines” (priority 1999, dated 2004):

What was measured:
[1] = test system: purple nutsedge; experiment: Test B pre/postemergence purple nutsedge; format: in vivo, Cyperus rotundus
Summary of the method: (§1)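 Herbicidal effect was estimated by eye on a ten-point control scale after plants spent twelve to sixteen days in a greenhouse following soil or foliar treatment. Foliar sprays targeted plants at one to four leaves; all doses were formulated in a non-phytotoxic solvent with surfactant.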

[2] = test system: blackgrass; experiment: Test B pre/postemergence blackgrass; format: in vivo, Alopecurus myosuroides
Summary of the method: as §1

[3] = test system: bedstraw; experiment: Test B pre/postemergence bedstraw; format: in vivo, Galium aparine
Summary of the method: as §1

[4] = test system: cocklebur; experiment: Test B pre/postemergence cocklebur; format: in vivo, Xanthium strumarium
Summary of the method: as §1

[5] = test system: pigweed; experiment: Test B pre/postemergence pigweed; format: in vivo, Amaranthus retroflexus
Summary of the method: as §1

[6] = test system: giant foxtail; experiment: Test B pre/postemergence giant foxtail; format: in vivo, Setaria faberii
Summary of the method: as §1

[7] = test system: sugar beet; experiment: Test B pre/postemergence sugar beet; format: in vivo, Beta vulgaris
Summary of the method: as §1

[8] = test system: rape; experiment: Test B pre/postemergence rape; format: in vivo, Brassica napus
Summary of the method: as §1

[9] = test system: wheat; experiment: Test B pre/postemergence wheat; format: in vivo, Triticum aestivum
Summary of the method: as §1

[10] = test system: wild oat; experiment: Test B pre/postemergence wild oat; format: in vivo, Avena fatua
Summary of the method: as §1

[11] = test system: surinam grass; experiment: Test B pre/postemergence surinam grass; format: in vivo, Brachiaria decumbens
Summary of the method: as §1

[12] = test system: velvetleaf; experiment: Test B pre/postemergence velvetleaf; format: in vivo, Abutilon theophrasti
Summary of the method: as §1

[13] = test system: crabgrass; experiment: Test B pre/postemergence crabgrass; format: in vivo, Digitaria sanguinalis
Summary of the method: as §1

[14] = test system: morningglory; experiment: Test B pre/postemergence morningglory; format: in vivo, Ipomoea hederacea
Summary of the method: as §1

[15] = test system: corn; experiment: Test B pre/postemergence corn; format: in vivo, Zea mays
Summary of the method: as §1

[16] = test system: soybean; experiment: Test B pre/postemergence soybean; format: in vivo, Glycine max
Summary of the method: as §1

[17] = Postemergence, Rate 62 g/ha, scale 0 to 10, 0 is no effect, 10 is complete control
[18] = Postemergence, Rate 125 g/ha, scale of 0 to 10 where 0 is no effect and 10 is complete control
[19] = Preemergence, Rate 125 g/ha, scale of 0 to 10 where 0 is no effect and 10 is complete control
[20] = Preemergence, Rate 250 g/ha, scale 0 (no effect) to 10 (complete control)
[21] = Rate 62 g/ha, Preemergence, scale 0 to 10
[22] = Rate 250 g/ha, Postemergence, scale 0 to 10, 0 is no effect, 10 is complete control
[23] = Rate 500 g/ha, Postemergence, scale 0 to 10, 0 is no effect, 10 is complete control
[24] = Rate 500 g/ha, Preemergence, scale 0 to 10 (0 no effect, 10 complete control)

## CC(C)N(C(=O)n1oc(=O)n(CCCCl)c1=O)c1ccc(Cl)cc1 [Compound 749]
[1]; [17]
  Plant response rating, Nutsedge: 0
[1]; [18]
  Nutsedge plant response rating: 0
[1]; [19]
  Plant response rating, Nutsedge: 0
[1]; [20]
  Nutsedge plant response rating: 0
[1]; [21]
  Nutsedge plant response rating: 0
[1]; [22]
  Nutsedge plant response rating: 0
[1]; [23]
  Nutsedge plant response rating: 0
[2]; [17]
  Plant response rating, Blackgrass: 5
[2]; [18]
  Blackgrass plant response rating: 5
[2]; [19]
  Plant response rating, Blackgrass: 2
[2]; [20]
  Blackgrass plant response rating: 6
[2]; [21]
  Blackgrass plant response rating: 0
[2]; [22]
  Blackgrass plant response rating: 6
[2]; [23]
  Blackgrass plant response rating: 6
[2]; [24]
  Blackgrass plant response rating: 9
[3]; [17]
  Plant response rating, Bedstraw: 3
[3]; [19]
  Plant response rating, Bedstraw: 0
[3]; [20]
  Bedstraw plant response rating: 0
[3]; [21]
  Bedstraw plant response rating: 0
[3]; [22]
  Bedstraw plant response rating: 3
[3]; [24]
  Bedstraw plant response rating: 4
[4]; [17]
  Plant response rating, Cocklebur: 0
[4]; [18]
  Cocklebur plant response rating: 2
[4]; [19]
  Plant response rating, Cocklebur: 0
[4]; [20]
  Cocklebur plant response rating: 0
[4]; [22]
  Cocklebur plant response rating: 4
[4]; [23]
  Cocklebur plant response rating: 4
[4]; [24]
  Cocklebur plant response rating: 0
[5]; [17]
  Plant response rating, Redroot pigweed: 4
[5]; [18]
  Redroot pigweed plant response rating: 4
[5]; [19]
  Plant response rating, Redroot pigweed: 5
[5]; [20]
  Redroot pigweed plant response rating: 7
[5]; [21]
  Redroot pigweed plant response rating: 0
[5]; [22]
  Redroot pigweed plant response rating: 4
[5]; [23]
  Redroot pigweed plant response rating: 7
[5]; [24]
  Redroot pigweed plant response rating: 9
[6]; [17]
  Plant response rating, Giant foxtail: 3
[6]; [18]
  Giant foxtail plant response rating: 5
[6]; [19]
  Plant response rating, Giant foxtail: 10
[6]; [20]
  Giant foxtail plant response rating: 10
[6]; [21]
  Giant foxtail plant response rating: 9
[6]; [22]
  Giant foxtail plant response rating: 9
[6]; [23]
  Giant foxtail plant response rating: 9
[6]; [24]
  Giant foxtail plant response rating: 10
[7]; [17]
  Plant response rating, Sugarbeets: 1
[7]; [18]
  Sugarbeets plant response rating: 3
[7]; [19]
  Plant response rating, Sugarbeets: 2
[7]; [20]
  Sugarbeets plant response rating: 6
[7]; [21]
  Sugarbeets plant response rating: 0
[7]; [22]
  Sugarbeets plant response rating: 4
[7]; [23]
  Sugarbeets plant response rating: 4
[7]; [24]
  Sugarbeets plant response rating: 7
[8]; [17]
  Plant response rating, Rape: 2
[8]; [18]
  Rape plant response rating: 2
[8]; [19]
  Plant response rating, Rape: 0
[8]; [20]
  Rape plant response rating: 0
[8]; [21]
  Rape plant response rating: 0
[8]; [22]
  Rape plant response rating: 6
[8]; [23]
  Rape plant response rating: 6
[8]; [24]
  Rape plant response rating: 5
[9]; [17]
  Plant response rating, Wheat: 0
[9]; [18]
  Wheat plant response rating: 0
[9]; [19]
  Plant response rating, Wheat: 0
[9]; [20]
  Wheat plant response rating: 1
[9]; [21]
  Wheat plant response rating: 0
[9]; [22]
  Wheat plant response rating: 0
[9]; [23]
  Wheat plant response rating: 0
[9]; [24]
  Wheat plant response rating: 1
[10]; [17]
  Plant response rating, Wild oats: 0
[10]; [18]
  Wild oats plant response rating: 0
[10]; [19]
  Plant response rating, Wild oats: 0
[10]; [20]
  Wild oats plant response rating: 5
[10]; [21]
  Wild oats plant response rating: 0
[10]; [22]
  Wild oats plant response rating: 0
[10]; [23]
  Wild oats plant response rating: 2
[10]; [24]
  Wild oats plant response rating: 8
[11]; [17]
  Plant response rating, B. signalgrass: 2
[11]; [18]
  B. signalgrass plant response rating: 2
[11]; Preemergence, Rate 62 g/ha, scale of 0 to 10 where 0 is no effect and 10 is complete control
  B. signalgrass plant response rating: 0
[11]; [19]
  Plant response rating, B. signalgrass: 2
[11]; [20]
  B. signalgrass plant response rating: 8
[11]; [22]
  B. signalgrass plant response rating: 3
[11]; [23]
  B. signalgrass plant response rating: 3
[11]; [24]
  B. signalgrass plant response rating: 10
[12]; [17]
  Plant response rating, Velvetleaf: 0
[12]; [18]
  Velvetleaf plant response rating: 3
[12]; [19]
  Plant response rating, Velvetleaf: 0
[12]; [20]
  Velvetleaf plant response rating: 0
[12]; [21]
  Velvetleaf plant response rating: 0
[12]; [22]
  Velvetleaf plant response rating: 3
[12]; [23]
  Velvetleaf plant response rating: 3
[12]; [24]
  Velvetleaf plant response rating: 2
[13]; [17]
  Plant response rating, Crabgrass: 4
[13]; [18]
  Crabgrass plant response rating: 8
[13]; [19]
  Plant response rating, Crabgrass: 10
[13]; [20]
  Crabgrass plant response rating: 10
[13]; [21]
  Crabgrass plant response rating: 9
[13]; [22]
  Crabgrass plant response rating: 9
[13]; [23]
  Crabgrass plant response rating: 9
[13]; [24]
  Crabgrass plant response rating: 10
[14]; [17]
  Plant response rating, Morningglory: 2
[14]; [18]
  Morningglory plant response rating: 3
[14]; [19]
  Plant response rating, Morningglory: 0
[14]; [20]
  Morningglory plant response rating: 0
[14]; [21]
  Morningglory plant response rating: 0
[14]; [22]
  Morningglory plant response rating: 5
[14]; [23]
  Morningglory plant response rating: 5
[14]; [24]
  Morningglory plant response rating: 0
[15]; [17]
  Plant response rating, Corn: 0
[15]; [18]
  Corn plant response rating: 0
[15]; [19]
  Plant response rating, Corn: 0
[15]; [20]
  Corn plant response rating: 0
[15]; [21]
  Corn plant response rating: 0
[15]; [22]
  Corn plant response rating: 0
[15]; [23]
  Corn plant response rating: 1
[15]; [24]
  Corn plant response rating: 0
[16]; [17]
  Plant response rating, Soybean: 3
[16]; [18]
  Soybean plant response rating: 4
[16]; [19]
  Plant response rating, Soybean: 0
[16]; [20]
  Soybean plant response rating: 2
[16]; [21]
  Soybean plant response rating: 0
[16]; [22]
  Soybean plant response rating: 5
[16]; [23]
  Soybean plant response rating: 5
[16]; [24]
  Soybean plant response rating: 3
